Experimental data: patent US7312024B2, “Materials and methods to inhibit Hodgkin and Reed Sternberg cell growth” (Amgen Canada Inc., priority 1999, dated 2007)

System: HDLM2 cells
Assay: [3H]-thymidine incorporation proliferation of HDLM2 cells after neutralization of IL-13
Assay type: cell-based, human
Details: IL-13 0.5-200 ng/ml
Description: To investigate the effects of IL-13 and IL-5 on the proliferation of H/RS cells, L428, KMH2 and HDLM2 cells were incubated with either (i) medium alone, (ii) medium containing neutralizing antibodies to IL-13 or IL-5, or (ii) isotype matched control antibodies. Proliferation was measured by determining [^3H]-thyridine incorporation at 24, 48, or 72 hours after treatment.
HD-derived L428, KMH2, and HDLM2 cells and LCL control cells (2×10^4/well) were cultured in 96-well flat-bottom plates for 24 hours, 48 hours, or 72 hours in the presence of anti-IL-13, anti-IL-5, or isotype control antibodies at 5, 10, 20, 30, 50, 100 or 150 μg/ml. Cells were treated either with IL-13 (0.5, 1, 5, 10, 50, 100 and 200 ng/ml), or with these same doses of IL-13 combined with 20 μg/ml anti-IL-13 monoclonal antibody. Tritium-labeled thymidine (1 μCi/well) was added to each well and incubation continued for eight hours. Cells were harvested on filters and incorporation of […] into cellular DNA was measured as previously described [Shahinian, et al., Science 261:609-12 (1993)]. The viability of cultured cell lines after treatment with anti-IL-13 neutralizing antibodies was examined by 7-aminoactinomycin D (7-AAD) staining.

In the case of “IL-13: exogenous IL-13 cytokine added to cells”, the “proliferation with exogenous IL-13 alone versus untreated cells” value is reported as “did not result in an increase in proliferation”.
